Assay results as given in patent publication US11299501B2 (BRISTOL-MYERS SQUIBB COMPANY, priority 2017, dated 2022).

Columns and labels:
Format in all cases: cell-based
[1] = biological target: T1, human TLR7 (Homo sapiens, UniProt Q9NYK1); assay: TLR7 inhibition reporter assay (HEK-Blue SEAP); details: cells overexpressing human TLR7, SEAP reporter, stimulated with gardiquimod 7.5 μM, 22 hour incubation
T1 construct: host or cells: HEK-Blue cells
T1 sequence (Q9NYK1 27-1049): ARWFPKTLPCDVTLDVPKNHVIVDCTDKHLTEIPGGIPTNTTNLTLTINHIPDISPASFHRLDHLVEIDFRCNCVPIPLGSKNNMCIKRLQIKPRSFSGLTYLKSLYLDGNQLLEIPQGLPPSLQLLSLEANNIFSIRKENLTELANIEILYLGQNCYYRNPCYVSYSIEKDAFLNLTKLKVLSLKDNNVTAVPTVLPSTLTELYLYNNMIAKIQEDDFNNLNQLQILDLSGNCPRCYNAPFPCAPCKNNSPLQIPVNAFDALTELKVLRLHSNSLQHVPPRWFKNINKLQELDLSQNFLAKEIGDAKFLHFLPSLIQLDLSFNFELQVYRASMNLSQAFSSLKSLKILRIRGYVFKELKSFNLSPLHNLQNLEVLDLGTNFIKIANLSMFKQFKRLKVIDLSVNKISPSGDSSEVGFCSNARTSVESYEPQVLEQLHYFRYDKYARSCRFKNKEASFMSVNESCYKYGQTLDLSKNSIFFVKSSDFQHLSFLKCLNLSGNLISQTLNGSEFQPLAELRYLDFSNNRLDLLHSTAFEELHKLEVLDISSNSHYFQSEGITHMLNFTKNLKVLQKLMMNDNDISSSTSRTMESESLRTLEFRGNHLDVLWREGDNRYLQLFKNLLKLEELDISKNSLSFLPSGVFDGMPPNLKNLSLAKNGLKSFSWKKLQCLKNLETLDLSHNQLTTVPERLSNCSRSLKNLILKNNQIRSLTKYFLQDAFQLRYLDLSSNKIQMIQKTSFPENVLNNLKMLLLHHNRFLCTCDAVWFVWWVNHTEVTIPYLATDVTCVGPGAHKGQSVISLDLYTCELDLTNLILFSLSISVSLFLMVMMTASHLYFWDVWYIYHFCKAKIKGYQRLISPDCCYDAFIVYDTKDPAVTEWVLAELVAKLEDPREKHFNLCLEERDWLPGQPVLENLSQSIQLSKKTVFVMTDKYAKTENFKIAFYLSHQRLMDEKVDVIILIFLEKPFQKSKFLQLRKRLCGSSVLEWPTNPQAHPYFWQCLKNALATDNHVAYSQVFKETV
Method: (§1) TLR7/8/9 Inhibition Reporter Assays
(§2) […] (Invivogen) overexpressing human TLR7, TLR8 or TLR9 receptors were used for screening inhibitors of these receptors using an inducible SEAP (secreted embryonic alkaline phosphatase) reporter gene under the control of the IFN-β minimal promoter fused to five NF-κB and AP-1-binding sites. Briefly, cells are seeded into Greiner 384 well plates (15000 cells per well for TLR7, 20,000 for TLR8 and 25,000 for TLR9) and then treated with test compounds in DMSO to yield a final dose response concentration range of 0.05 nM-50 μM. After a 30 minute compound pre-treatment at room temperature, the cells are then stimulated with a TLR7 ligand (gardiquimod at a final concentration of 7.5 μM). TLR8 ligand (R848 at a final concentration of 15.9 μM) or TLR9 ligand (ODN2006 at a final concentration of 5 nM) to activate NF-κB and AP-1 which induce the production of SEAP. After a 22 hour incubation at 37° C., 5% CO2, SEAP levels are determined with the addition of HEK-Blue™ Detection reagent (Invivogen), a cell culture medium that allows for detection of SEAP, according to manufacturer's specifications. The percent inhibition is determined as the % reduction in the HEK-Blue signal present in wells treated with agonist plus DMSO alone compared to wells treated with a known inhibitor.

[2] = biological target: T2, human TLR8 (Homo sapiens, UniProt Q9NR97); assay: TLR8 inhibition reporter assay (HEK-Blue SEAP); details: cells overexpressing human TLR8, SEAP reporter, stimulated with R848 15.9 μM, 22 hour incubation
T2 construct: host or cells: HEK-Blue cells
T2 sequence (Q9NR97 27-1041): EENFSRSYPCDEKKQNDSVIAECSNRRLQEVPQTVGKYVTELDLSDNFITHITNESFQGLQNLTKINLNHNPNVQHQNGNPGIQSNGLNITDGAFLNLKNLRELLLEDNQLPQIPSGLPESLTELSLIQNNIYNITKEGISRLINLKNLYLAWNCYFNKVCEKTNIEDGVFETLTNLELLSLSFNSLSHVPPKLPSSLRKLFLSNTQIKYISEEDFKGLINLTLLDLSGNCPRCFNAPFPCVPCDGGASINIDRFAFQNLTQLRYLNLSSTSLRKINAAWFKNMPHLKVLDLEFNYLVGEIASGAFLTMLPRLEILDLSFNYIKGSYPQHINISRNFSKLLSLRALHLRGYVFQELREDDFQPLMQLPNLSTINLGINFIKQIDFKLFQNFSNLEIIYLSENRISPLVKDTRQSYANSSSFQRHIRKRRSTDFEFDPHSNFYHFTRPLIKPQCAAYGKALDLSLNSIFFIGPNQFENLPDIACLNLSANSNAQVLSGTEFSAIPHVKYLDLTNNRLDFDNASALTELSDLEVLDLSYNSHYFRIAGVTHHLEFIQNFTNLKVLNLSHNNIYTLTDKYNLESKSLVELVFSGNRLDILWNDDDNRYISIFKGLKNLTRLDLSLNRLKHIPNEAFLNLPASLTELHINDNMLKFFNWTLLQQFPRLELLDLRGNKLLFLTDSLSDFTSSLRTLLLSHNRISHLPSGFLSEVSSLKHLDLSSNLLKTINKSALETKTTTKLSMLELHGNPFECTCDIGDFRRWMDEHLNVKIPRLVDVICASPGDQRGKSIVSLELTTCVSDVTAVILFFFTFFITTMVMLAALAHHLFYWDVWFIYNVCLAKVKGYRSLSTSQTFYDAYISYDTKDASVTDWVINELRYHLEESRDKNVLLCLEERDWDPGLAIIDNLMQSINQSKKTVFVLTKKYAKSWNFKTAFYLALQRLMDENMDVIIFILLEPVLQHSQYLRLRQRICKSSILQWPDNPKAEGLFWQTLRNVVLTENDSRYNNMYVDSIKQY
Method: as §1, §2

[3] = biological target: T3, human TLR9 (Homo sapiens, UniProt Q9NR96); assay: TLR9 inhibition reporter assay (HEK-Blue SEAP); details: cells overexpressing human TLR9, SEAP reporter, stimulated with ODN2006 5 nM, 22 hour incubation
T3 construct: host or cells: HEK-Blue cells
T3 sequence (Q9NR96 26-1032): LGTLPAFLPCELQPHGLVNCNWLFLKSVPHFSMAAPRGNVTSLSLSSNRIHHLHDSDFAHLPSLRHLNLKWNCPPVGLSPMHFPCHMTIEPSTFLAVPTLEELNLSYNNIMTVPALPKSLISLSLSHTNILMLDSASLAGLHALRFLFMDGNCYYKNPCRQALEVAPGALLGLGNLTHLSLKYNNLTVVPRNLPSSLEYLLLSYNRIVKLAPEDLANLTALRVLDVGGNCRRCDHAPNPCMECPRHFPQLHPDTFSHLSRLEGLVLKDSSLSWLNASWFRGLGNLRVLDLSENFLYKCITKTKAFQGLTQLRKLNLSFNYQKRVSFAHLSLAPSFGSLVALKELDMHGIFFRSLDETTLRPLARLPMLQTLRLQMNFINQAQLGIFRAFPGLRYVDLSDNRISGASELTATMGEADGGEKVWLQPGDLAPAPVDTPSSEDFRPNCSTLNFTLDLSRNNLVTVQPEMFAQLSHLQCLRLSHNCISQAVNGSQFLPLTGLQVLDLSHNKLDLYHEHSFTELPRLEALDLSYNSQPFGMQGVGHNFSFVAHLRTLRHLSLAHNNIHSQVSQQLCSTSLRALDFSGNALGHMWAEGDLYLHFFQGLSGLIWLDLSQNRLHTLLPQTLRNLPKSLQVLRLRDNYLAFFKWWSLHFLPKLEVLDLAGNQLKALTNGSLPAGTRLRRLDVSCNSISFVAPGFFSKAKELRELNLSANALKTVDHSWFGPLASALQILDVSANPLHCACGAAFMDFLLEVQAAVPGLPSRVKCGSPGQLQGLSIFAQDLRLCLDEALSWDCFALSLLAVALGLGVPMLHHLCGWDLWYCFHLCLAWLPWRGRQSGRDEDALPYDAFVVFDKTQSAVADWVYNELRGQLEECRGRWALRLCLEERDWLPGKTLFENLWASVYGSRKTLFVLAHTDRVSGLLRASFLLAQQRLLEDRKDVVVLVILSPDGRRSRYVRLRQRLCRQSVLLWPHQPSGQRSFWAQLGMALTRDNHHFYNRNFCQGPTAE
Method: as §1, §2

SMILES | IC50 [1] | IC50 [2] | IC50 [3]
CCc1c(-c2ccc(OC)c(OC)c2)[nH]c2cnc(-c3nnc(C[C@@H]4CCCCN4)o3)nc12 [Example 46, (S)-2-(6-(3,4-dimethoxyphenyl)-7-ethyl-5H-pyrrolo[3,2-d]pyrimidin-2-yl)-5-(piperidin-2-ylmethyl)-1,3,4-oxadiazole] | 1000 to 50000 nM | 100 to 1000 nM | 1000 to 50000 nM
CCc1c(-c2ccc(OC)c(OC)c2)[nH]c2cnc(C(=O)NC3CCN(C(C)C)CC3)nc12 [Example 56, 6-(3,4-diunethoxyphenyl)-7-ethyl-N-(1-isopropylpiperidin-4-yl)-5H-pyrrolo[3,2-d]pyrimidine-2-carboxamide] | 1000 to 50000 nM | 1000 to 50000 nM | > 50000 nM
CCc1c(-c2ccc(OC)c(OC)c2)[nH]c2cnc(-c3nnc([C@@H]4CCNC4)o3)nc12 [Example 41, (R)-2-(6-(3,4-dimethoxyphenyl)-7-ethyl-5H-pyrrolo[3,2-d]pyrimidin-2-yl)-5-(pyrrolidin-3-yl)-1,3,4-oxadiazole] | 1000 to 50000 nM | 1000 to 50000 nM | 1000 to 50000 nM
COc1ccc(-c2[nH]c3cnc(C4CCN(C5CCN(CC(C)C)CC5)CC4)nc3c2C)cc1OC [Example 6, 6-(3,4-dimethoxyphenyl)-2-(1′-isobutyl-[1,4′-bipiperidin]-4-yl)-7-methyl-5H-pyrrolo[3,2-d]pyrimidine] | 100 to 1000 nM | 100 to 1000 nM | 100 to 1000 nM
CCc1c(-c2ccnc3[nH]ncc23)[nH]c2cnc(C3CCN(C4CCN(C(C)C)CC4)CC3)nc12 [Example 25, 4-(7-ethyl-2-(1′-isopropyl-[1,4′-bipiperidin]-4-yl)-5H-pyrrolo[3,2-d]pyrimidin-6-yl)-1H-pyrazolo[3,4-b]pyridine] | 100 to 1000 nM | 100 to 1000 nM | 100 to 1000 nM
COc1cc(-c2[nH]c3cnc(C4CCN(CC(=O)N(C)C)CC4)nc3c2C(C)C)cn2ncnc12 [Example 31, 2-(4-(7-isopropyl-6-(8-methoxy-[1,2,4]triazolo[1,5-a]pyridin-6-yl)-5H-pyrrolo[3,2-d]pyrimidin-2-yl)piperidin-1-yl)-N,N-dimethylacetamide] | < 100 nM | < 100 nM | 1000 to 50000 nM
CCc1c(-c2ccc(OC)c(OC)c2)[nH]c2cnc(-c3nnc([C@H]4CCCNC4)o3)nc12 [Example 40, (S)-2-(6-(3,4-dimethoxyphenyl)-7-ethyl-5H-pyrrolo[3,2-d]pyrimidin-2-yl)-5-(piperidin-3-yl)-1,3,4-oxadiazole] | 100 to 1000 nM | 100 to 1000 nM | 100 to 1000 nM

The next lines start with the values.

IC50 [1] | IC50 [2] | IC50 [3] | SMILES
< 100 nM | < 100 nM | 100 to 1000 nM | CCc1c(-c2ccc(OC)c(OC)c2)[nH]c2cnc(C3CCN(C4CCN(C(C)C)CC4)CC3)nc12 [Example 26, 6-(3,4-dimethoxyphenyl)-7-ethyl-2-(1′-isopropyl-[1,4′-bipiperidin]-4-yl)-5H-pyrrolo[3,2-d]pyrimidine]
< 100 nM | 100 to 1000 nM | 100 to 1000 nM | CCc1c(-c2ccc(OC)c(OC)c2)[nH]c2ncc(C3CCN(C4CCN(C(C)C)CC4)CC3)nc12 [Example 5, 6-(3,4-ditnethoxyphenyl)-7-ethyl-2-(1′-isopropyl-[1,4′-bipiperidin]-4-yl)-5H-pyrrolo[2,3-b]pyrazine]
< 100 nM | 100 to 1000 nM | 100 to 1000 nM | COc1ccc(-c2[nH]c3cnc(C4CCN(C(=O)CN(C)C)CC4)nc3c2C(C)C)cc1OC [Example 18, 1-(4-(6-(3,4-dimethoxyphenyl)-7-isopropyl-5H-pyrrolo[3,2-d]pyrimidin-2-yl)piperidin-1-yl)-2-(dimethylanino)ethan-1-one]
< 100 nM | < 100 nM | 1000 to 50000 nM | Cc1cc(-c2[nH]c3cnc(C4CCN(CC(=O)N(C)C)CC4)nc3c2C(C)C)cn(C)c1=O [Example 32, 2-(4-(6-(1,5-dimethyl-6-oxo-1,6-dihydropyridin-3-yl)-7-isopropyl-5H-pyrrolo[3,2-d]pyrimidin-2-yl)piperidin-1-yl)-N,N-dimethylacetainide]
< 100 nM | < 100 nM | 1000 to 50000 nM | Cc1cc(-c2[nH]c3cnc(C4CCN(C)CC4)nc3c2C(C)C)cn(C)c1=O [Example 34, 5-(7-isopropyl-2-(1-methylpiperidin-4-yl)-5H-pyrrolo[3,2-d]pyrimidin-6-yl)-1,3-dimethylpyridin-2(1H)-one]
